Read-outs that look alike come from different tables or passages of the source. Starred links: 1 amine or outer side, 2 acyl side, 3 side chain; linkers in the order of their positions; H or OH if unused. Non-standard residues stand in square brackets, D forms with d. Residues, ends and D or L forms follow the SMILES beside them. Groups on a side chain read outwards from the residue. *: point of attachment. C20 diacid = O=C(O)CCCCCCCCCCCCCCCCCCC(=O)*; γGlu = O=C(O)[C@H](CCC(=O)[*:2])N[*:1]; NMeI = CC[C@H](C)[C@H](NC)C(=O)O; Nle = CCCC[C@H](N)C(=O)O; AEEA = NCCOCCOCC(=O)O; Aib = CC(C)(N)C(=O)O
Assays:
hCRHR1 = molecular target: T1, hCRHR1 (Homo sapiens, UniProt P34998); experiment: HTRF cAMP assay, determination of hCRHR1 potency (peptide libraries 5 conc., purified peptides 11 conc.); assay type: cell-based
T1 sequence (P34998 24-415): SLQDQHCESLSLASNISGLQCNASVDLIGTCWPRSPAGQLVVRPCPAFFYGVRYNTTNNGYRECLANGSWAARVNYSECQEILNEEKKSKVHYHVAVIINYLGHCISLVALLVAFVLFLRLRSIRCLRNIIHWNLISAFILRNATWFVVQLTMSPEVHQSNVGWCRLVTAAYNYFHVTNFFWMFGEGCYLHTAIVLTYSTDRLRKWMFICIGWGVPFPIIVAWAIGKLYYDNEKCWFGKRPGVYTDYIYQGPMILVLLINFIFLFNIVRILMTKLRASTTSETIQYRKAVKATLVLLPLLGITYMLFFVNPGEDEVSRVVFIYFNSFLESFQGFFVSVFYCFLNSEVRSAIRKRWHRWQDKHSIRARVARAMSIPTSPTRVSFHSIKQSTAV
In short: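 CHO-K1 cells stably expressing human CRHR1, thawed from frozen stocks just before use, were stimulated in suspension with agonist peptides. cAMP was measured by HTRF competitive immunoassay (cryptate anti-cAMP antibody vs d2-cAMP).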

hCRHR2 = molecular target: T2, hCRHR2 (Homo sapiens, UniProt Q13324); experiment: HTRF cAMP assay, determination of hCRHR2 potency (peptide libraries 5 conc., purified peptides 11 conc.); assay type: cell-based
T2 sequence (Q13324 1-411): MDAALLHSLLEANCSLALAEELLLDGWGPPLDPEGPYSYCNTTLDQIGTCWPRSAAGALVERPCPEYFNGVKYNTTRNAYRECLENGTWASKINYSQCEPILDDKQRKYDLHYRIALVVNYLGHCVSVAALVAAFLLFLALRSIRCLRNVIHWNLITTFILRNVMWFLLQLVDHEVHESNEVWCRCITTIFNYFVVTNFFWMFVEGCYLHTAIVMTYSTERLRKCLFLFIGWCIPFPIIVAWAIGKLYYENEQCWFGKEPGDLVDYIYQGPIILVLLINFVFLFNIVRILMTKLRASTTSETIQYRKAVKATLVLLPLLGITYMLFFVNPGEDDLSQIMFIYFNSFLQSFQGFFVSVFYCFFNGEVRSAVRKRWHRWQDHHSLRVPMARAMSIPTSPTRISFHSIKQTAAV
In short: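 CHO-K1 cells stably expressing human CRHR2, thawed from frozen stocks just before use and run in suspension; cAMP measured by competitive HTRF immunoassay (cryptate anti-cAMP, d2-cAMP). Agonist peptides tested at 5 (libraries) or 11 (purified) concentrations; EC50 from sigmoid variable-slope nonlinear regression.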

[1] = Table 3, matched molecular pairs X^38 L vs Nle, peptide library of Example 4, read-out: hCRHR1 pEC50 (converted)
[2] = Table 3, matched molecular pairs X^38 L vs Nle, peptide library of Example 4, read-out: hCRHR2 pEC50 (converted)
[3] = library peptides, matched molecular pairs L vs Nle in position X^38, read-out: Potency hCRHR1 pEC50 (converted)
[4] = library peptides, matched molecular pairs L vs Nle in position X^38, read-out: Potency hCRHR2 pEC50 (converted)

| Structure (SMILES) | EC50 (hCRHR1; [1]) [nM] | EC50 (hCRHR2; [2]) [nM] | EC50 (hCRHR1; [3]) [nM] | EC50 (hCRHR2; [4]) [nM] | other results |
| --- | --- | --- | --- | --- | --- |
| CCCC[C@H](NC(=O)[C@@H](NC(=O)[C@H](CCC(=O)O)NC(=O)[C@H](C)NC(=O)[C@H](CC(N)=O)NC(=O)[C@@H](NC(=O)[C@H](CCCCNC(=O)COCCOCCNC(=O)COCCOCCNC(=O)CC[C@H](NC(=O)CC[C@H](NC(=O)CCCCCCCCCCCCCCCCCCC(=O)O)C(=O)O)C(=O)O)NC(=O)[C@H](C)NC(=O)[C@H](CCC(N)=O)NC(=O)[C@H](CCC(=O)O)NC(=O)[C@H](CCCNC(=N)N)NC(=O)[C@H](C)NC(=O)[C@H](C)NC(=O)[C@H](CCC(=O)O)NC(=O)[C@H](C)NC(=O)[C@H](CCCNC(=N)N)NC(=O)[C@H](C)NC(=O)[C@H](CCC(N)=O)NC(=O)[C@H](CCC(=O)O)NC(=O)[C@H](CC(C)C)NC(=O)[C@H](CC(C)C)NC(=O)[C@@H](NC(=O)[C@H](CCC(N)=O)NC(=O)[C@H](CC(C)C)NC(=O)[C@H](CC(C)C)NC(=O)CNC(=O)[C@@H](NC(=O)[C@@H]1CCCN1C(=O)[C@@H](NC(=O)[C@H](CC(=O)O)NC(=O)[C@H](CC(C)C)NC(=O)[C@H](CO)NC(=O)[C@H](CC(C)C)NC(=O)[C@@H](NC(=O)[C@@H](N)[C@@H](C)CC)C(C)C)C(C)C)[C@@H](C)CC)[C@@H](C)CC)[C@@H](C)O)[C@@H](C)CC)C(=O)N[C@@H](C)C(=O)N[C@@H](CCC(=O)O)C(=O)N[C@H](C(N)=O)C(C)C [SEQ ID NO: 26] (H-IVLSLDVPIGLLQILLEQARAEAAREQAK([AEEA-AEEA-γGlu-γGlu-C20 diacid])TNAEI[Nle]AEV-NH2) | 251 | 0.316 |  |  |  |
| CC[C@H](C)[C@H](N)C(=O)N[C@H](C(=O)N[C@@H](CC(C)C)C(=O)N[C@@H](CO)C(=O)N[C@@H](CC(C)C)C(=O)N[C@@H](CC(=O)O)C(=O)N[C@H](C(=O)N1CCC[C@H]1C(=O)N[C@H](C(=O)NCC(=O)N[C@@H](CC(C)C)C(=O)N[C@@H](CC(C)C)C(=O)N[C@@H](CCC(N)=O)C(=O)N[C@H](C(=O)N[C@@H](CC(C)C)C(=O)N[C@@H](CC(C)C)C(=O)N[C@@H](CCC(=O)O)C(=O)N[C@@H](CCC(N)=O)C(=O)N[C@@H](C)C(=O)N[C@@H](CCCNC(=N)N)C(=O)N[C@@H](C)C(=O)N[C@@H](CCCNC(=N)N)C(=O)N[C@@H](C)C(=O)N[C@@H](CCC(N)=O)C(=O)N[C@@H](CCCNC(=N)N)C(=O)N[C@@H](CCC(N)=O)C(=O)N[C@@H](CCC(N)=O)C(=O)N[C@@H](C)C(=O)N[C@@H](CCCCNC(=O)COCCOCCNC(=O)COCCOCCNC(=O)CC[C@H](NC(=O)CC[C@H](NC(=O)CCCCCCCCCCCCCCCCCCC(=O)O)C(=O)O)C(=O)O)C(=O)N[C@H](C(=O)N[C@@H](CC(N)=O)C(=O)N[C@@H](C)C(=O)N[C@@H](CCC(=O)O)C(=O)N[C@H](C(=O)N[C@@H](CC(C)C)C(=O)N[C@@H](C)C(=O)N[C@@H](CCC(=O)O)C(=O)N[C@H](C(N)=O)C(C)C)[C@@H](C)CC)[C@@H](C)O)[C@@H](C)CC)[C@@H](C)CC)C(C)C)C(C)C [SEQ ID NO: 46] (H-IVLSLDVPIGLLQILLEQARARAQRQQAK([AEEA-AEEA-γGlu-γGlu-C20 diacid])TNAEILAEV-NH2) | 2510 | 0.316 |  |  |  |
| CCCC[C@H](NC(=O)[C@@H](NC(=O)[C@H](CCC(=O)O)NC(=O)[C@H](C)NC(=O)[C@H](CC(N)=O)NC(=O)[C@@H](NC(=O)[C@H](CCCCNC(=O)COCCOCCNC(=O)COCCOCCNC(=O)CC[C@H](NC(=O)CC[C@H](NC(=O)CCCCCCCCCCCCCCCCCCC(=O)O)C(=O)O)C(=O)O)NC(=O)[C@H](C)NC(=O)[C@H](CCC(N)=O)NC(=O)[C@H](CCC(=O)O)NC(=O)[C@H](CCCNC(=N)N)NC(=O)[C@H](C)NC(=O)[C@@H](NC(=O)[C@H](CCCNC(=N)N)NC(=O)[C@H](C)NC(=O)[C@H](CCCNC(=N)N)NC(=O)[C@H](C)NC(=O)[C@H](CCC(N)=O)NC(=O)[C@H](CCC(=O)O)NC(=O)[C@H](CC(C)C)NC(=O)[C@H](CC(C)C)NC(=O)[C@@H](NC(=O)[C@H](CCC(N)=O)NC(=O)[C@H](CC(C)C)NC(=O)[C@H](CC(C)C)NC(=O)CNC(=O)[C@@H](NC(=O)[C@@H]1CCCN1C(=O)[C@@H](NC(=O)[C@H](CC(=O)O)NC(=O)[C@H](CC(C)C)NC(=O)[C@H](CO)NC(=O)[C@H](CC(C)C)NC(=O)[C@@H](NC(=O)[C@@H](N)[C@@H](C)CC)C(C)C)C(C)C)[C@@H](C)CC)[C@@H](C)CC)C(C)C)[C@@H](C)O)[C@@H](C)CC)C(=O)N[C@@H](C)C(=O)N[C@@H](CCC(=O)O)C(=O)N[C@H](C(N)=O)C(C)C [compound 91] (H-IVLSLDVPIGLLQILLEQARARVAREQAK([AEEA-AEEA-γGlu-γGlu-C20 diacid])TNAEI[Nle]AEV-NH2) |  |  | 1.58 | 0.398 |  |
| CCCC[C@H](NC(=O)[C@@H](NC(=O)[C@H](CCC(=O)O)NC(=O)C(C)(C)NC(=O)[C@H](CC(N)=O)NC(=O)[C@@H](NC(=O)[C@H](CCCCNC(=O)COCCOCCNC(=O)COCCOCCNC(=O)CC[C@H](NC(=O)CC[C@H](NC(=O)CCCCCCCCCCCCCCCCCCC(=O)O)C(=O)O)C(=O)O)NC(=O)[C@H](C)NC(=O)[C@H](CCC(N)=O)NC(=O)[C@H](CCC(=O)O)NC(=O)[C@H](CCCNC(=N)N)NC(=O)[C@H](C)NC(=O)[C@H](C)NC(=O)[C@H](CCCNC(=N)N)NC(=O)[C@H](C)NC(=O)[C@H](CCCNC(=N)N)NC(=O)[C@H](C)NC(=O)[C@H](CCC(N)=O)NC(=O)[C@H](Cc1c[nH]cn1)NC(=O)[C@H](CC(C)C)NC(=O)[C@H](CC(C)C)NC(=O)[C@@H](NC(=O)[C@H](CCC(N)=O)NC(=O)[C@H](CC(C)C)NC(=O)[C@H](CC(C)C)NC(=O)CNC(=O)[C@@H](NC(=O)[C@@H]1CCCN1C(=O)[C@@H](NC(=O)[C@H](CC(=O)O)NC(=O)[C@H](CC(C)C)NC(=O)[C@H](CO)NC(=O)[C@H](CC(C)C)NC(=O)[C@@H](NC(=O)[C@@H](NC)[C@@H](C)CC)C(C)C)C(C)C)[C@@H](C)CC)[C@@H](C)CC)[C@@H](C)O)[C@@H](C)CC)C(=O)N[C@@H](C)C(=O)N[C@@H](CCC(=O)O)C(=O)N[C@H](C(N)=O)C(C)C [compound 207] (H-[NMeI]VLSLDVPIGLLQILLHQARARAAREQAK([AEEA-AEEA-γGlu-γGlu-C20 diacid])TN[Aib]EI[Nle]AEV-NH2) |  |  |  |  | EC50 (hCRHR1; Table 4, library peptides having X^38 = Nle, read-out: hCRHR1 pEC50 (converted)): 1000 nM; EC50 (hCRHR2; Table 4, library peptides having X^38 = Nle, read-out: hCRHR2 pEC50 (converted)): 0.0398 nM |
| CCCC[C@H](NC(=O)[C@@H](NC(=O)[C@H](CCC(=O)O)NC(=O)[C@H](C)NC(=O)[C@H](CC(N)=O)NC(=O)[C@@H](NC(=O)[C@H](CCCCNC(=O)COCCOCCNC(=O)COCCOCCNC(=O)CC[C@H](NC(=O)CC[C@H](NC(=O)CCCCCCCCCCCCCCCCCCC(=O)O)C(=O)O)C(=O)O)NC(=O)[C@H](C)NC(=O)[C@H](CCC(N)=O)NC(=O)[C@H](CCC(=O)O)NC(=O)[C@H](CCCNC(=N)N)NC(=O)[C@H](C)NC(=O)[C@H](C)NC(=O)[C@H](CCC(N)=O)NC(=O)[C@H](C)NC(=O)[C@H](CCCNC(=N)N)NC(=O)[C@H](C)NC(=O)[C@H](CCC(N)=O)NC(=O)[C@H](CCC(=O)O)NC(=O)[C@H](CC(C)C)NC(=O)[C@H](CC(C)C)NC(=O)[C@@H](NC(=O)[C@H](CCC(N)=O)NC(=O)[C@H](CC(C)C)NC(=O)[C@H](CC(C)C)NC(=O)CNC(=O)[C@@H](NC(=O)[C@@H]1CCCN1C(=O)[C@@H](NC(=O)[C@H](CC(=O)O)NC(=O)[C@H](CC(C)C)NC(=O)[C@H](CO)NC(=O)[C@H](CC(C)C)NC(=O)[C@@H](NC(=O)[C@@H](N)[C@@H](C)CC)C(C)C)C(C)C)[C@@H](C)CC)[C@@H](C)CC)[C@@H](C)O)[C@@H](C)CC)C(=O)N[C@@H](C)C(=O)N[C@@H](CCC(=O)O)C(=O)N[C@H](C(N)=O)C(C)C [compound 63] (H-IVLSLDVPIGLLQILLEQARAQAAREQAK([AEEA-AEEA-γGlu-γGlu-C20 diacid])TNAEI[Nle]AEV-NH2) |  |  | 501 | 0.251 |  |
